From the NIST ThermoML archive (doi:10.1021/je5010214)

Details: Liquid, Vibrating tube method

CC(C)CO [2-methyl-1-propanol]
Details | mass density [kg/m3]
293.15 K, 5367.8 kPa | 806.019
293.15 K, 5979.3 kPa | 806.327
293.15 K, 8031.4 kPa | 807.842
293.15 K, 12279 kPa | 811.587
293.15 K, 16110 kPa | 814.191
293.15 K, 18001 kPa | 815.385
293.15 K, 30253 kPa | 822.999
293.15 K, 32967 kPa | 824.811
293.15 K, 42984 kPa | 830.218
293.15 K, 44913 kPa | 831.278
293.15 K, 47933 kPa | 833.008
293.15 K, 50078 kPa | 834.047
293.16 K, 310.4 kPa | 802.406
293.16 K, 463.5 kPa | 802.612
293.16 K, 1059.7 kPa | 802.921
293.16 K, 2037.1 kPa | 803.747
293.16 K, 2922 kPa | 804.089
293.16 K, 3431.5 kPa | 804.593
293.16 K, 5298.8 kPa | 805.894
293.16 K, 7111.4 kPa | 807.238
293.16 K, 9968.5 kPa | 809.474
293.16 K, 14057 kPa | 812.743
293.16 K, 20853 kPa | 817.066
293.16 K, 22118 kPa | 818.157
293.16 K, 24057 kPa | 819.188
293.16 K, 25922 kPa | 820.412
293.16 K, 27187 kPa | 821.228
293.16 K, 34602 kPa | 825.683
293.16 K, 38051 kPa | 827.567
293.16 K, 40103 kPa | 828.763
293.16 K, 52135 kPa | 835.387
293.16 K, 55036 kPa | 836.79
293.16 K, 58004 kPa | 838.271
293.16 K, 60107 kPa | 839.502
293.16 K, 62061 kPa | 840.325
293.16 K, 66037 kPa | 842.335
298.15 K, 122.4 kPa | 798.281
298.15 K, 162.6 kPa | 798.371
298.15 K, 405.5 kPa | 798.562
298.15 K, 632.8 kPa | 798.678
298.15 K, 956.4 kPa | 798.832
298.15 K, 6988.8 kPa | 803.491
298.15 K, 14555 kPa | 809.311
298.15 K, 18284 kPa | 812.068
298.15 K, 20164 kPa | 813.104
298.15 K, 22781 kPa | 814.894
298.15 K, 25076 kPa | 816.275
298.15 K, 27604 kPa | 817.904
298.15 K, 30046 kPa | 819.519
298.15 K, 32326 kPa | 821.055
298.15 K, 33317 kPa | 821.248
298.15 K, 44911 kPa | 827.946
298.15 K, 60006 kPa | 836.063
298.15 K, 62079 kPa | 837.121
298.15 K, 65330 kPa | 838.566
298.15 K, 66093 kPa | 839.052
298.16 K, 1152.2 kPa | 799.011
298.16 K, 2046.3 kPa | 799.798
298.16 K, 3021.1 kPa | 800.42
298.16 K, 5107.4 kPa | 801.927
298.16 K, 9044.3 kPa | 804.777
298.16 K, 9996.8 kPa | 805.681
298.16 K, 11947 kPa | 807.14
298.16 K, 33072 kPa | 821.357
298.16 K, 34997 kPa | 822.338
298.16 K, 37948 kPa | 823.936
298.16 K, 39972 kPa | 825.207
298.16 K, 41983 kPa | 826.345
298.16 K, 48045 kPa | 829.528
298.16 K, 49997 kPa | 830.783
298.16 K, 52020 kPa | 832.399
298.16 K, 54851 kPa | 833.381
298.16 K, 57898 kPa | 835.245
303.15 K, 50.6 kPa | 793.736
303.15 K, 974.4 kPa | 794.496
303.15 K, 1922.5 kPa | 795.367
303.15 K, 9012.3 kPa | 801.25
303.15 K, 10062 kPa | 802.346
303.15 K, 14908 kPa | 805.823
303.15 K, 18109 kPa | 808.133
